Patent US4092315A, “Novel crystalline forms of prazosin hydrochloride” (Pfizer Inc., priority 1976, dated 1978)
“Also recorded” adds a separate entry of the source.

Legend:
Type in all cases: physicochemical
[1] = Hygroscopicity: water content (Karl Fischer) of samples on exposure to humidity; conditions: for Water Content: 37° C.; for hygroscopicity (in words): compared with the other forms
Description: Since moisture uptake affects integrity of a drug form, the α-, β- and γ- crystalline polymorphs of prazosin hydrochloride were compared for their relative hygroscopicity. Samples of each polymorph were placed in an open beaker and stored in a chamber maintained at 37° C. and 75% relative humidity. Portions were withdrawn periodically and their water content determined by the Karl Fischer method.

[2] = Conversion to hydrate on contact with water (microscopy, trituration); conditions: drop of water on microscope slide or excess of water, hydrochloride
From the text: When samples of the α-, β- and γ- polymorphs are triturated with water the resulting product in each case is found to give an infrared spectrum identical to that of the prazosin hydrochloride hydrates.
The β-form consisted of dark, monoclinic crystals, while the γ-form and polyhydrate are both needle-like crystals.
This is in agreement with the above mentioned change in the infrared spectra of the α-, β-, γ- polymorphs to that of the hydrates of prazosin hydrochloride upon trituration of each of the crystalline polymorphs with water. Stability Studies

[3] = Compressed disc (intrinsic) dissolution in water at 37° C.; conditions: slope between 4 and 10 minutes, 150 rpm, hydrochloride
Description: Compressed disc dissolution studies were carried out by means of the procedure developed by Hamlin et al., J. Pharm, Sci., 51, 432(1962). A 300 mg. sample of powder was compressed against a flat surface at 3000 psi. for 2 minutes into a flat round disc using a tablet die of 7/16 inch diameter. The die holding the compressed disc was stoppered at the open end and placed into a plastic holder. This assembly was then placed into a jar containing 1000 ml. of water equilibrated at 37° C. The stirring rate of a teflon paddle centered in the jar was maintained at 150 revolutions per minute. The solution was pumped continuously through a Millipore filter ([…] pore size) into a flow cell of a Beckman Acta II spectrophotometer which automatically recorded any absorbance changes at 246 nm.
Table VI compares the intrinsic dissolution rates of various forms of prazosin hydrochloride. The rates were determined from the slopes of the compressed disc dissolution profiles between 4 and 10 minutes.

[4] = Moisture uptake of anhydrate, monohydrate and dihydrate at room temperature, 75% relative humidity
Description: When samples of the anhydrate and monohydrate are stored at room temperature and 75% relative humidity they absorb moisture rapidly to form the dihydrate (8% water) in about 24 hours.

[5] = Hygroscopicity: water content (Karl Fischer) of samples on exposure to humidity; conditions: room temperature, 20% relative humidity, initially 13.5% water
[6] = 5 days, 75% R.H., hydrochloride
[7] = 12 days, 75% R.H., hydrochloride
[8] = 25 days, 75% R.H., hydrochloride
[9] = 34 days, 75% R.H., hydrochloride

SMILES: COc1cc2nc(N3CCN(C(=O)c4ccco4)CC3)nc(N)c2cc1OC.Cl [β-form, 2-[4-(2-furoyl)piperazin-1-yl]-4-amino-6,7-dimethoxyquinazoline hydrochloride]
- Water Content [1, 6]: 0.59 % by Weight
- Water Content [1, 7]: 1.18 % by Weight
- Water Content [1, 8]: 4.66 % by Weight
- Water Content [1, 9]: 6.06 % by Weight
- hygroscopicity (in words) ([1]; hydrochloride): hygroscopic
- conversion to hydrate on contact with water (in words) ([2]; listed as β-): sharp needle-like crystals of hydrate grew
- Intrinsic Dissolution Rate ([3]; listed as β-): 3.36 μg/liter sec.

SMILES: COc1cc2nc(N3CCN(C(=O)c4ccco4)CC3)nc(N)c2cc1OC.Cl [dihydrate, 2-[4-(2-furoyl)piperazin-1-yl]-4-amino-6,7-dimethoxyquinazoline hydrochloride]
- equilibrium water content ([4]; after 4 days, room temperature, 75% relative humidity): 13.5%

SMILES: COc1cc2nc(N3CCN(C(=O)c4ccco4)CC3)nc(N)c2cc1OC.Cl [monohydrate, 2-[4-(2-furoyl)piperazin-1-yl]-4-amino-6,7-dimethoxyquinazoline hydrochloride]
- reversion upon exposure to moist air (in words) ([4]; exposure to moist air): revert to polyhydrate

SMILES: COc1cc2nc(N3CCN(C(=O)c4ccco4)CC3)nc(N)c2cc1OC.Cl [polyhydrate, 2-[4-(2-furoyl)piperazin-1-yl]-4-amino-6,7-dimethoxyquinazoline hydrochloride]
- Water Content ([1]; 10 days, 75% relative humidity, initially 13.7% water): 13.2%
- Water Content ([1]; 23 days, 75% relative humidity, initially 13.7% water): 13.4%
- moisture ([1]; other samples exposed to high humidity): up to 15%
- Water Content ([5]; 18 days): 13.0%
- Water Content ([5]; 35 days): 13.1%
- Intrinsic Dissolution Rate ([3]; listed as Polyhydrate): 2.57 μg/liter sec.

SMILES: COc1cc2nc(N3CCN(C(=O)c4ccco4)CC3)nc(N)c2cc1OC.Cl [γ-form, 2-[4-(2-furoyl)piperazin-1-yl]-4-amino-6,7-dimethoxyquinazoline hydrochloride]
- Water Content [1, 6]: 0.16 % by Weight
- Water Content [1, 7]: 4.61 % by Weight
- Water Content [1, 8]: 9.47 % by Weight
- Water Content [1, 9]: 9.05 % by Weight
- hygroscopicity (in words) ([1]; hydrochloride): more hygroscopic then the β-form
- change of form on exposure to moisture (in words) ([1]; infrared spectrum (KBr) after exposure to moisture): formation of a hydrate
- conversion to hydrate on contact with water (in words) ([2]; listed as γ-forms): sharp needle-like crystals of hydrate grew
- Intrinsic Dissolution Rate ([3]; listed as γ-): 2.35 μg/liter sec.

SMILES: COc1cc2nc(N3CCN(C(=O)c4ccco4)CC3)nc(N)c2cc1OC.Cl [methanolate, 2-[4-(2-furoyl)piperazin-1-yl]-4-amino-6,7-dimethoxyquinazoline hydrochloride]
- Intrinsic Dissolution Rate ([3]; listed as Methanolate): 2.68 μg/liter sec.

SMILES: COc1cc2nc(N3CCN(C(=O)c4ccco4)CC3)nc(N)c2cc1OC.Cl [anhydrate, 2-[4-(2-furoyl)piperazin-1-yl]-4-amino-6,7-dimethoxyquinazoline hydrochloride]
- water content on storage (dihydrate formed) ([4]; about 24 hours, room temperature, 75% relative humidity): 8%
- time to form the dihydrate ([4]; room temperature, 75% relative humidity): about 24 hours
- Intrinsic Dissolution Rate ([3]; listed as Anhydrate): 2.35 μg/liter sec.

SMILES: COc1cc2nc(N3CCN(C(=O)c4ccco4)CC3)nc(N)c2cc1OC.Cl [α-form, 2-[4-(2-furoyl)piperazin-1-yl]-4-amino-6,7-dimethoxyquinazoline hydrochloride]
- Water Content [1, 6]: 0.32 % by Weight
- Water Content [1, 7]: 0.85 % by Weight
- Water Content [1, 8]: 1.18 % by Weight
- Water Content [1, 9]: 1.54 % by Weight
- hygroscopicity (in words) ([1]; hydrochloride): relatively non-hydroscopic when compared with the β- and γ-forms; also recorded: non-hygroscopic
- conversion to hydrate on contact with water (in words) [2]: converted to the polyhydrate
- conversion to hydrate on contact with water (in words) ([2]; listed as α-): sharp needle-like crystals of hydrate grew
- Intrinsic Dissolution Rate ([3]; listed as α-): 3.25 μg/liter sec.
